Reference: publication PMC4657098, “A Review of the Updated Pharmacophore for the Alpha 5 GABA(A) Benzodiazepine Receptor Model” (International Journal of Medicinal Chemistry, 2015)
“Also recorded” adds a separate entry of the source.

Assays:
[1] = tested on: mice; details: cited from earlier work
[2] = molecular target: α6β3γ2 GABAA/BzR (Homo sapiens, UniProt P18507+Q16445); assay: Competition binding to HEK cell membranes, α6β3γ2; parameters: expressed in transfected cells; details: Figure 5; read-out: Ki α6
[3] = molecular target: T1, M5 (Homo sapiens, UniProt P08912); assay: PDSP receptor binding, M5; details: PDSP primary screen at 10 µM
T1 construct: purchased NIMH PDSP (Psychoactive Drug Screening Program, Roth lab, Case Western Reserve)

[4] = tested on: mice; parameters: method as in earlier work; details: cited from earlier work
[5] = molecular target: T2, α5β3γ2 GABAA receptor (Homo sapiens, UniProt P18507+P31644); assay: Oocyte electrophysiology, α5β3γ2; assay type: cell-based
T2 construct: expressed in transfected cells; host or cells: Xenopus oocytes

[6] = molecular target: T3, 5ht1e (Homo sapiens, UniProt P28566); assay: PDSP receptor binding, 5ht1e; details: PDSP primary screen at 10 µM
T3 construct: purchased NIMH PDSP (Psychoactive Drug Screening Program, Roth lab, Case Western Reserve)

[7] = tested on: NMDA; assay: PDSP receptor binding, NMDA; details: PDSP primary screen at 10 µM
[8] = molecular target: α1β3γ2 GABAA/BzR (Homo sapiens, UniProt P14867+P18507); assay: Competition binding to HEK cell membranes, α1β3γ2; parameters: expressed in transfected cells; details: Figure 5; read-out: Ki α1
[9] = molecular target: KOR (Homo sapiens, UniProt P41145); assay: PDSP receptor binding, KOR; details: Case Western Reserve University, read-out: KOR Ki (secondary binding)
[10] = molecular target: T4, 5ht2a (Homo sapiens, UniProt P28223); assay: PDSP receptor binding, 5ht2a; details: PDSP primary screen at 10 µM
T4 construct: purchased NIMH PDSP (Psychoactive Drug Screening Program, Roth lab, Case Western Reserve)

[11] = molecular target: T5, M1 (Homo sapiens, UniProt P11229); assay: PDSP receptor binding, M1; details: PDSP primary screen at 10 µM
T5 construct: purchased NIMH PDSP (Psychoactive Drug Screening Program, Roth lab, Case Western Reserve)

[12] = molecular target: α5β3γ2 GABAA/BzR (Homo sapiens, UniProt P18507+P31644); assay: Competition binding to HEK cell membranes, α5β3γ2; parameters: expressed in transfected cells; details: Figure 5; read-out: Ki α5
[13] = molecular target: T6, α1A (Homo sapiens, UniProt P35348); assay: PDSP receptor binding, α1A; details: PDSP primary screen at 10 µM
T6 construct: purchased NIMH PDSP (Psychoactive Drug Screening Program, Roth lab, Case Western Reserve)

[14] = molecular target: T7, H4 (Homo sapiens, UniProt Q9H3N8); assay: PDSP receptor binding, H4; details: PDSP primary screen at 10 µM
T7 construct: purchased NIMH PDSP (Psychoactive Drug Screening Program, Roth lab, Case Western Reserve)

[15] = molecular target: T8, 5ht6 (Homo sapiens, UniProt P50406); assay: PDSP receptor binding, 5ht6; details: PDSP primary screen at 10 µM
T8 construct: purchased NIMH PDSP (Psychoactive Drug Screening Program, Roth lab, Case Western Reserve)

[16] = molecular target: T9, CB2 (Homo sapiens, UniProt P34972); assay: PDSP receptor binding, CB2; details: PDSP primary screen at 10 µM
T9 construct: purchased NIMH PDSP (Psychoactive Drug Screening Program, Roth lab, Case Western Reserve)

[17] = molecular target: T10, α2B (Homo sapiens, UniProt P18089); assay: PDSP receptor binding, α2B; details: PDSP primary screen at 10 µM
T10 construct: purchased NIMH PDSP (Psychoactive Drug Screening Program, Roth lab, Case Western Reserve)

[18] = molecular target: T11, DOR (Homo sapiens, UniProt P41143); assay: PDSP receptor binding, DOR; details: PDSP primary screen at 10 µM
T11 construct: purchased NIMH PDSP (Psychoactive Drug Screening Program, Roth lab, Case Western Reserve)

[19] = tested on: other receptors (PDSP panel); assay: Full PDSP panel receptor binding; details: NIMH PDSP, Case Western Reserve
[20] = molecular target: T12, 5ht1d (Homo sapiens, UniProt P28221); assay: PDSP receptor binding, 5ht1d; details: PDSP primary screen at 10 µM
T12 construct: purchased NIMH PDSP (Psychoactive Drug Screening Program, Roth lab, Case Western Reserve)

[21] = molecular target: T13, 5ht1b (Homo sapiens, UniProt P28222); assay: PDSP receptor binding, 5ht1b; details: PDSP primary screen at 10 µM
T13 construct: purchased NIMH PDSP (Psychoactive Drug Screening Program, Roth lab, Case Western Reserve)

[22] = molecular target: T14, 5ht1a (Homo sapiens, UniProt P08908); assay: PDSP receptor binding, 5ht1a; details: PDSP primary screen at 10 µM
T14 construct: purchased NIMH PDSP (Psychoactive Drug Screening Program, Roth lab, Case Western Reserve)

[23] = molecular target: T15, 5ht2c (Homo sapiens, UniProt P28335); assay: PDSP receptor binding, 5ht2c; details: PDSP primary screen at 10 µM
T15 construct: purchased NIMH PDSP (Psychoactive Drug Screening Program, Roth lab, Case Western Reserve)

[24] = molecular target: α2β3γ2 GABAA/BzR (Homo sapiens, UniProt P18507+P47869); assay: Competition binding to HEK cell membranes, α2β3γ2; parameters: expressed in transfected cells; details: Figure 5; read-out: Ki α2
[25] = molecular target: T16, NET (Homo sapiens, UniProt P23975); assay: PDSP receptor binding, NET; details: PDSP primary screen at 10 µM
T16 construct: purchased NIMH PDSP (Psychoactive Drug Screening Program, Roth lab, Case Western Reserve)

[26] = molecular target: T17, α2C (Homo sapiens, UniProt P18825); assay: PDSP receptor binding, α2C; details: PDSP primary screen at 10 µM
T17 construct: purchased NIMH PDSP (Psychoactive Drug Screening Program, Roth lab, Case Western Reserve)

[27] = molecular target: α3β3γ2 GABAA/BzR (Homo sapiens, UniProt P18507+P34903); assay: Competition binding to HEK cell membranes, α3β3γ2; parameters: expressed in transfected cells; details: Figure 5; read-out: Ki α3

For `CCc1ccc2c(c1)C(=O)N(C)Cc1c(C(=O)OCCCOC(=O)c3ncn4c3CN(C)C(=O)c3cc(CC)ccc3-4)ncn1-2` [XLi-356 (10), 1,3-Bis(8-ethyl-5,6-dihydro-5-methyl-6-oxo-4H-imidazo[1,5a][1,4]benzodiazepine-3-carboxy) propyl diester], the “freezing (contextual memory) after scopolamine” value ([1]; 10 mg/kg, scopolamine 1 mg/kg) is listed as “attenuated the impairment of memory”, the “reversal of scopolamine induced memory deficits” value ([1]; mice) is listed as “potently reverse scopolamine induced memory deficits” and the Ki [2] is listed as 5 µM. The M5 binding [3] was “∗ (“∗” indicates “primary missed” (<50% inhibition at 10 µM))”, the “audio cued fear conditioning” value [4] was “no activity; also recorded: not able to reverse” and the “efficacy type at the α5 subtype” value [5] was “weak agonist-antagonist”. For the same molecule, the 5ht1e binding [6] was “∗ (“∗” indicates “primary missed” (<50% inhibition at 10 µM))”, the NMDA binding [7] was “∗ (“∗” indicates “primary missed” (<50% inhibition at 10 µM))” and the Ki [8] was 1.85 µM. The Ki [9] was 6.12 µM, the 5ht2a binding [10] was “∗ (“∗” indicates “primary missed” (<50% inhibition at 10 µM))” and the M1 binding [11] was “∗ (“∗” indicates “primary missed” (<50% inhibition at 10 µM))”. The Ki [12] was 0.101 µM, the α1A binding [13] was “∗ (“∗” indicates “primary missed” (<50% inhibition at 10 µM))” and the H4 binding [14] was “∗ (“∗” indicates “primary missed” (<50% inhibition at 10 µM))”. The 5ht6 binding [15] was “∗ (“∗” indicates “primary missed” (<50% inhibition at 10 µM))”, the CB2 binding [16] was “∗ (“∗” indicates “primary missed” (<50% inhibition at 10 µM))” and the α2B binding [17] was “∗ (“∗” indicates “primary missed” (<50% inhibition at 10 µM))”. For the same molecule, the DOR binding [18] was “∗ (“∗” indicates “primary missed” (<50% inhibition at 10 µM))”, the “full panel receptor binding” value [19] was “do not bind to other receptors at levels of concern” and the 5ht1d binding [20] was “∗ (“∗” indicates “primary missed” (<50% inhibition at 10 µM))”. For the same molecule, the 5ht1b binding [21] was “∗ (“∗” indicates “primary missed” (<50% inhibition at 10 µM))”, the 5ht1a binding [22] was “∗ (“∗” indicates “primary missed” (<50% inhibition at 10 µM))” and the 5ht2c binding [23] was “∗ (“∗” indicates “primary missed” (<50% inhibition at 10 µM))”. The Ki [24] was 4.2 µM, the NET binding [25] was “∗ (“∗” indicates “primary missed” (<50% inhibition at 10 µM))” and the α2C binding [26] was “∗ (“∗” indicates “primary missed” (<50% inhibition at 10 µM))”. It also gave a Ki [27] of 8.55 µM.
